Measurements taken from patent US6372209B1, “Vaginal lactobacillus medicant” (Gyne Logix, Inc., priority 1997, dated 2002).

Tested on: vaginal epithelial cells (VECs)
Experiment: In vitro adherence to vaginal epithelial cells (frozen VECs, McIlvaine's buffer pH 4.5, Gram stain count)
Type: cell-based, human
Conditions: for average adherence value: 8 VEC donors
Method: (1.2) Adherence to vaginal epithelial cells (VECs): Immediately after sampling, vaginal epithelial cells were transferred to MEM tissue culture medium, pH 7.2, washed 3 times in a syringe and passed through a 8μ filter (Millipore) which retains vaginal cells but passes bacteria. A total of 10^5 washed vaginal cells were added to a suspension of 10^9 Lactobacilli/ml (enumerated with a counting chamber) and incubated for 2.5 hours at 37° C. After washing and filtering to remove unattached Lactobacilli, the vaginal cells were stained using Gram stain. The number of Lactobacilli that adhered to the epithelial cells was counted and recorded using a light microscope equipped with a camera. Both the mean number of Lactobacilli cells adhered per VEC (average adherence value) and the percent VEC cohesion value, as described above, were calculated. The percent VEC cohesion value, defined as the percentage of VECs to which at least one Lactobacillus cell is adhered of the total number of VECs in an identified group, was used to determine whether a particular strain would be selected as having a desirable adherence characteristic. Since ongoing adherence studies required a constant supply of vaginal epithelial cells, the vaginal epithelial cells were pre-washed and stored at −70° C. until time of use.
Table 1 and Table 2 show the in vitro adherence studies using frozen VECs from donors representing the most prevalent ABO blood types. […] Strain CTV-05 (Lot LB-022) was preserved in suppository format as described in detail in Example 3. Suppositories were stored at both room (RT) and refrigerator (Ref.) temperatures for 5.5 months prior to testing. It is important to note that the cells of strain CTV-05 used in these studies were not in an actively growing metabolic state. Rather, a suppository containing CTV-05 was placed directly into McIlvaine's buffer (pH 4.5) without pregrowing the microbial cells to an active state. The cells were then directly added to VECs. Results are shown as (1) the logarithmic mean adherence of CTV-05 per 50 VECs (X ±1 standard deviation), (2) as the actual range of adhered CTV-05 per VEC in a total count of 50 VECs, and (3) as the percent VEC cohesion value (% VEC ADH). The description of terms in Table 1 is as follows: ^1X±STD=logarithmic mean adherence of LAB per 50 VEC, +1 standard deviation; ^2 Range=actual range of adhered LAB per VEC in a total count of 50 VECs; ^3% VEC ADH=percent of 50 VECs showing adherence of LAB strain CTV-05, Lot LB-022, stored for 5.5 months at refrigerated (Ref.) and/or room temperature (RT); and *Nursing Mother.
The buffer was then added directly to previously frozen VECs from human donors. Actively growing CTV-05 was also added to previously frozen VECs.

[1] = Active LAB, donor A+, cycle day 3, Gram stain score 4
[2] = Active LAB, donor A+, cycle day 17, Gram stain score 9
[3] = Active LAB, donor A+, cycle day 37, Gram stain score 8
[4] = Active LAB, donor AB+, cycle day 24, Gram stain score 4
[5] = Active LAB, donor A−, cycle day 8 mos., Gram stain score 4
[6] = Active LAB, donor B+, cycle day 13, Gram stain score 9
[7] = Active LAB, donor O+, cycle day 7, Gram stain score 2
[8] = Active LAB, donor O+, cycle day 7, Gram stain score 4
[9] = Active LAB, donor O+, cycle day 15, Gram stain score 2
[10] = Active LAB, donor O+, cycle day 20, Gram stain score 6
[11] = Active LAB, frozen VECs, 10 donors
[12] = Inactive LAB, Agar, donor A+, cycle day 3, Gram stain score 4
[13] = Inactive LAB, Agar, donor A+, cycle day 37, Gram stain score 8
[14] = Inactive LAB, Agar, donor AB+, cycle day 24, Gram stain score 4
[15] = Inactive LAB, Agar, donor B+, cycle day 13, Gram stain score 9
[16] = Inactive LAB, Agar, donor O+, cycle day 7, Gram stain score 2
[17] = Inactive LAB, Agar, donor O+, cycle day 15, Gram stain score 2
[18] = Inactive LAB, Agar, donor O+, cycle day 20, Gram stain score 6
[19] = Inactive LAB, Agar, frozen VECs
[20] = Inactive LAB, Broth, donor A+, cycle day 3, Gram stain score 4
[21] = Inactive LAB, Broth, donor A+, cycle day 17, Gram stain score 9
[22] = Inactive LAB, Broth, donor A+, cycle day 37, Gram stain score 8
[23] = Inactive LAB, Broth, donor AB+, cycle day 24, Gram stain score 4
[24] = Inactive LAB, Broth, donor A−, cycle day 8 mos., Gram stain score 4
[25] = Inactive LAB, Broth, donor B+, cycle day 13, Gram stain score 9
[26] = Inactive LAB, Broth, donor O+, cycle day 7, Gram stain score 2
[27] = Inactive LAB, Broth, donor O+, cycle day 7, Gram stain score 4
[28] = Inactive LAB, Broth, donor O+, cycle day 15, Gram stain score 2
[29] = Inactive LAB, Broth, donor O+, cycle day 20, Gram stain score 6
[30] = Inactive LAB, Broth, frozen VECs, 10 donors

## Lactobacillus crispatus CTV-05
[1]
  % VEC ADH: 94%
  X ± 1 STD (logarithmic mean adherence of LAB per 50 VEC): 17.7 ± 3.2
[2]
  % VEC ADH: 66%
  X ± 1 STD (logarithmic mean adherence of LAB per 50 VEC): 13.0 ± 5.0
[3]
  % VEC ADH: 94%
  Range (adhered LAB per VEC): 0-133 LAB per VEC
  X ± 1 STD (logarithmic mean adherence of LAB per 50 VEC): 8.5 ± 3.3
[4]
  % VEC ADH: 70%
  Range (adhered LAB per VEC): 0-109 LAB per VEC
  X ± 1 STD (logarithmic mean adherence of LAB per 50 VEC): 5.1 ± 3.4
[5]
  % VEC ADH: 96%
  X ± 1 STD (logarithmic mean adherence of LAB per 50 VEC): 52.1 ± 3.6
[6]
  % VEC ADH: 68%
  Range (adhered LAB per VEC): 0-61 LAB per VEC
  X ± 1 STD (logarithmic mean adherence of LAB per 50 VEC): 5.7 ± 3.3
[7]
  % VEC ADH: 94%
  X ± 1 STD (logarithmic mean adherence of LAB per 50 VEC): 51.9 ± 3.0
[8]
  % VEC ADH: 92%
  X ± 1 STD (logarithmic mean adherence of LAB per 50 VEC): 36.3 ± 2.7
[9]
  % VEC ADH: 96%
  Range (adhered LAB per VEC): 0-216 LAB per VEC
  X ± 1 STD (logarithmic mean adherence of LAB per 50 VEC): 16.4 ± 4.0
[10]
  % VEC ADH: 100%
  Range (adhered LAB per VEC): 1-122 LAB per VEC
  X ± 1 STD (logarithmic mean adherence of LAB per 50 VEC): 14.1 ± 2.3
[11]
  Overall Averages # LAB/VEC: 22.1 LAB/VEC
  Overall Averages % Adherence: 77.6%
[12]
  Range (adhered LAB per VEC): 14-200 LAB per VEC
  X ± 1 STD (logarithmic mean adherence of LAB per 50 VEC): 96.1 ± 2.3
[13]
  % VEC ADH: 100%
  X ± 1 STD (logarithmic mean adherence of LAB per 50 VEC): 58.9 ± 2.1
[14]
  % VEC ADH: 100%
  X ± 1 STD (logarithmic mean adherence of LAB per 50 VEC): 47.3 ± 2.5
[15]
  % VEC ADH: 100%
  X ± 1 STD (logarithmic mean adherence of LAB per 50 VEC): 19.4 ± 3.9
[16]
  % VEC ADH: 100%
  X ± 1 STD (logarithmic mean adherence of LAB per 50 VEC): 21.4 ± 2.5
[17]
  % VEC ADH: 38%
  Range (adhered LAB per VEC): 0-11 LAB per VEC
  X ± 1 STD (logarithmic mean adherence of LAB per 50 VEC): 1.9 ± 2.1
[18]
  % VEC ADH: 200%
  X ± 1 STD (logarithmic mean adherence of LAB per 50 VEC): 60.9 ± 2.1
[19]
  Overall Averages # LAB/VEC: 43.7 LAB/VEC
  Overall Averages % Adherence: 91.1%
[20]
  % VEC ADH: 46%
  X ± 1 STD (logarithmic mean adherence of LAB per 50 VEC): 6.4 ± 3.9
[21]
  % VEC ADH: 38%
  X ± 1 STD (logarithmic mean adherence of LAB per 50 VEC): 3.1 ± 3.2
[22]
  % VEC ADH: 98%
  X ± 1 STD (logarithmic mean adherence of LAB per 50 VEC): 10.9 ± 3.6
[23]
  % VEC ADH: 72%
  Range (adhered LAB per VEC): 0-178 LAB per VEC
  X ± 1 STD (logarithmic mean adherence of LAB per 50 VEC): 7.1 ± 3.5
[24]
  % VEC ADH: 99%
  Range (adhered LAB per VEC): 0-56 LAB per VEC
  X ± 1 STD (logarithmic mean adherence of LAB per 50 VEC): 6.5 ± 3.0
[25]
  % VEC ADH: 60%
  X ± 1 STD (logarithmic mean adherence of LAB per 50 VEC): 7.3 ± 4.7
[26]
  % VEC ADH: 100%
  Range (adhered LAB per VEC): 1-96 LAB per VEC
  X ± 1 STD (logarithmic mean adherence of LAB per 50 VEC): 5.7 ± 2.8
[27]
  % VEC ADH: 92%
  Range (adhered LAB per VEC): 0-96 LAB per VEC
  X ± 1 STD (logarithmic mean adherence of LAB per 50 VEC): 7.8 ± 3.1
[28]
  % VEC ADH: 80%
  X ± 1 STD (logarithmic mean adherence of LAB per 50 VEC): 6.9 ± 3.3
[29]
  % VEC ADH: 100%
  Range (adhered LAB per VEC): 1-66 LAB per VEC
  X ± 1 STD (logarithmic mean adherence of LAB per 50 VEC): 15.9 ± 3.1
[30]
  Overall Averages # LAB/VEC: 7.76 LAB/VEC
  Overall Averages % Adherence: 78.4%
Cells stored at refrigerated temperatures
  average adherence value: 24.3 cells/VEC
Frozen VECs, McIlvaines Buffer pH 4.5
  adherence of inactive (preserved state) cells compared with metabolically active cells: equally well or better
Room temperature stored cells
  average adherence value: 21.9 cells/VEC
Stored at refrigerated temperature
  percent VEC cohesion value, average: 97.75%
Stored at room temperature
  percent VEC cohesion value, average: 97%
